Laboratory results as given in US7968526B2, “Antisense oligonucleotides directed to ribonucleotide reductase R2 and uses thereof in the treatment of cancer” (Lorus Therapeutics Inc., priority 2003, dated 2011).

Experiments:
[1] = test system: A2058 human skin cancer cells; assay: A2058 melanoma growth in CD-1 nude mice (3.2); format: in vivo, human cells in mice
Description: Treatments lasted for 14 days thereafter. Antitumour activities were estimated by the inhibition of tumour volume, which was measured with a caliper on four different occasions over the treatment period. Each point represents mean tumour volume calculated from 5 animals per experimental group. […] Control animals (control) received saline alone for the same period. At the end of the treatments, the animals were sacrificed, tumours were excised and their weights were measured. Each bar represents mean tumour weight calculated from 6 animals per experimental group. […] Treatments lasted for 24 days thereafter. Antitumour activities were estimated by the inhibition of tumour volume, which was measured with a caliper at two-day intervals over the treatment period. Each point represents mean tumour volume calculated from 4 animals per experimental group. […] Treatments lasted for 24 days thereafter. Antitumour activities were estimated by the inhibition of tumour volume, which was measured with a caliper at two-day intervals over the treatment period. Each point represents mean tumour volume calculated from 4 animals per experimental group. […] Each point represents mean tumour volume calculated from 5 animals per experimental group. […] Antitumour activities were estimated by the inhibition of tumour volume, which was measured with a caliper on four different occasions over 16-day period. […]

[2] = 21-day intravenous toxicity study in the rat with a 21-day recovery; format: in vivo, Sprague-Dawley rats
Description: SEQ ID NO:1 was administered to Sprague-Dawley rats via intravenous bolus injection every second day up to 21 days, with a 21-day recovery period. The study design included 4 treatment groups; vehicle controls, 2 mg/kg, 10 mg/kg, and 50 mg/kg. The main study group consisted of 10 animals/sex, and an additional 5 animals/sex were included in the control and high-dose groups for a recovery phase. Satellite animals (6/sex/group) were also included for toxicokinetic analysis.

[3] = test system: DU145 human prostatic cancer cells; assay: DU145 prostatic tumour xenograft in SCID mice, combination with mitoxantrone (1.5); format: in vivo, human cells in mice
Description: After 52 days the mice were sacrificed and the tumours weighed. […] In both experiments, PC-3 human prostatic cancer cells (1×10^7 cells in 100 μl of PBS) were subcutaneously injected into the right flank of 6-7 weeks old male SCID mice. After the size of tumour reached an approximate volume of 50 mm^3, 14 days post tumour cell injection, SEQ ID NO: 1 was administered by bolus infusion into the tail vein every other day at 10 mg/kg 18 times (FIG. 4A) or 17 times (FIG. 4B), respectively. Control animals received saline alone for the same period. Antitumour effect of SEQ ID NO:1 was further compared to that of mitoxantrone (novantrone) alone or in combination. Mitoxantrone was administered intravenously once at the beginning of the treatments at a dose of 2 mg/kg (FIG. 4A) or once a week for four weeks at a reduced dose of 0.8 mg/kg (FIG. 4B). All treatments were stopped at day 50 (FIG. 4A) or 48 (FIG. 4B), respectively. A day after the last treatment, tumours were excised from the animals and their weights were measured. […] In both experiments, DU145 human prostatic cancer cells (1×10^7 cells in 100 μl of PBS) were subcutaneously injected into the right flank of 6-7 weeks old male SCID mice. After the size of tumour reached an approximate volume of 50 mm^3, 13 (FIG. 5A) or 11 (FIG. 5B) days post tumour cell injection, SEQ ID NO:1 was administered by bolus infusion into the tail vein every other day at 10 mg/kg 15 times (FIG. 5A) or 14 times (FIG. 5B), respectively. Control animals received saline alone for the same period. Antitumour effect of SEQ ID NO:1 was further compared to that of mitoxantrone (novantrone) alone or in combination. Mitoxantrone was administered intravenously once at the beginning of the treatments at a dose of 2 mg/kg (FIG. 5A) or once a week for four weeks at a reduced dose of 0.8 mg/kg (FIG. 5B). All treatments were stopped at day 42 (FIG. 5A) or 38 (FIG. 5B), respectively. A day after the last treatment, tumours were excised from the animals and their weights were measured.

[4] = test system: SU.86.86 human pancreatic cancer cells; assay: SU.86.86 pancreatic tumour growth in CD-1 nude mice (3.6); format: in vivo, human cells in mice
Description: Treatments lasted for 14 days thereafter. Antitumour activities were estimated by the inhibition of tumour volume, which was measured with a caliper on four different occasions over the treatment period. Each point represents mean tumour volume calculated from 5 animals per experimental group. […] Control animals (control) received saline alone for the same period. At the end of the treatments, the animals were sacrificed, tumours were excised and their weights were measured. Each bar represents mean tumour weight calculated from 6 animals per experimental group. […] Treatments lasted for 24 days thereafter. Antitumour activities were estimated by the inhibition of tumour volume, which was measured with a caliper at two-day intervals over the treatment period. Each point represents mean tumour volume calculated from 4 animals per experimental group. […] Treatments lasted for 24 days thereafter. Antitumour activities were estimated by the inhibition of tumour volume, which was measured with a caliper at two-day intervals over the treatment period. Each point represents mean tumour volume calculated from 4 animals per experimental group. […] Each point represents mean tumour volume calculated from 5 animals per experimental group. […] Antitumour activities were estimated by the inhibition of tumour volume, which was measured with a caliper on four different occasions over 16-day period. Each point represents mean tumour volume calculated from 5 animals per experimental group. […] Antitumour activities were estimated by the inhibition of tumour volume, which was measured with a caliper at two-day intervals over the treatment period. Each point represents mean tumour volume calculated from 5 animals per experimental group. […] Antitumour activities were estimated by the inhibition of tumour volume, which was measured with a caliper at various time intervals over the span of 30 days. Each point represents mean tumour volume calculated from 6 animals per experimental group. […] Antitumour activities were estimated by the inhibition of tumour volume, which was measured with a caliper. […]

[5] = test system: Human taxol-resistant promyelocytic leukaemia cells (HL-60); assay: HL-60 taxol-resistant promyelocytic leukaemia tumour in SCID mice (2.7); format: in vivo, human cells in mice; details: SEQ ID NO:1 10 mg/kg i.v. every other day
Description: BxPC-3 is a gemcitabine resistant call line. […] Gemcitabine was administered intravenously every three days at a dose of 100 mg/kg. Antitumour activities were estimated by the inhibition of tumour volume, which was measured with caliper. Each point represents mean tumour volume calculated from 10 animals per experimental group. […] Hela S3 is a hydroxyurea resistant cell line. […] Hydroxyurea was administered intraperitoneally every day at a dose of 250 mg/kg for 10 days. Cisplatin was administered intravenously once a week for three weeks at a dose of 4 mg/kg. Antitumour activities were estimated by the inhibition of tumour volume, which was measured with caliper. Each point represents mean tumour volume calculated from 10 animals per experimental group. […] Cisplatin was administered intravenously once a week for three weeks at a dose of 4 mg/kg. Taxol was administered intravenously once a week for three weeks at a dose of 10 mg/kg. Antitumour activities were estimated by the inhibition of tumour volume, which was measured with caliper. Each point represents mean tumour volume calculated from 10 animals per experimental group. […] Taxol was administered i.p. once a week at a dose of 10 mg/kg. Antitumour activities were estimated by the inhibition of tumour volume (FIG. 12A), which was measured with calipers. Each point represents mean tumour volume calculated from 10 animals per experimental group. Animals were sacrificed and tumour weights taken at the end of the study (FIG. 12C). […] Cisplatin was administered intravenously once a week for four weeks at a dose of 4 mg/kg. Taxol was administered intravenously once a week for four weeks at a dose of 20 mg/kg. Antitumour activities were estimated by the inhibition of tumour volume, which was measured with caliper. Each point represents mean tumour volume calculated from 9-10 animals per experimental group. […] Cisplatin was administered intravenously once a week for four weeks at a dose of 4 mg/kg. Antitumour activities were estimated by the inhibition of tumour volume, which was measured with caliper. Each point represents mean tumour volume calculated from 10 animals per experimental group. At the end of the study the animals were sacrificed and tumours weighed. […] Taxol was administered i.p. once a week at a dose of 10 mg/kg. Anti-tumour activity was estimated by the inhibition of tumour volume, which was measured with caliper. Each point represents mean tumour volume calculated from 10 animals per experimental group. […] Antitumour activities were estimated by the inhibition of tumour volume, which was measured with caliper. Each point represents mean tumour volume calculated from 10 animals per experimental group. Tumour weights were measured after animals were sacrificed at the end of the treatment. […]

[6] = 50 mg/kg i.v. bolus every second day up to 21 days

Q: Which “Inhibitory effect on tumour growth (tumour volume, FIG. 18A)” value ([1]; A2058, CD-1 nude mice, 10 mg/kg i.v. every other day, 24 days) does the source give for “5′-GGCTAAATCGCTCCACCAAG-3′ (all phosphorothioate, sugars by position and methylation of C not given here) [SEQ ID NO: 1, fully phosphorothioated antisense oligonucleotide that hybridizes to the coding region of R2 mRNA]” here?
A: The value was “strong inhibitory effects on the growth of human melanoma”.

Q: And the “Inhibition of tumour weight” value ([1]; Human Melanoma)?
A: Its value is about 80%.

Q: And the Toxicity findings ([2]; 2 mg/kg i.v. bolus every second day up to 21 days)?
A: The Toxicity findings was “no remarkable effects on any of the above parameters”.

Q: What about the Toxicity findings ([2]; 10 mg/kg i.v. bolus every second day up to 21 days) of the same substance?
A: The Toxicity findings was “no clinical signs, no effects on body weight or food consumption, a lesser degree of anemia and thrombocytopenia, and only minor changes in a few serum chemistry parameters”.

Q: And the Mortality [2, 6]?
A: Its Mortality is “A single mortality”.

Q: What about the Toxicity findings [2, 6] of the same substance?
A: The Toxicity findings was “various adverse clinical signs, a decrement in body weight gain (associated with diminished food consumption), lymphocytosis, moderate anemia and thrombocytopenia, and various relatively mild changes in serum chemistry parameters”.

Q: And the “Target organs (histopathology)” value ([2]; 10 and 50 mg/kg)?
A: The value was “lymphoid system, kidneys, and liver”.

Q: And the “no-adverse-effect-level (NOAEL)” value ([2]; 21-day study)?
A: The value was 2 mg/kg/day.

Q: What about the “Tumour weight as % of saline control” value ([3]; DU145 (prostatic), SCID, second of two printed values (two independent experiments), SEQ ID NO:1 10 mg/kg i.v. every other day, mitoxantrone i.v.) of the same substance?
A: Its value is 41%.

Q: And the “Antitumour effect (tumour weight, FIG. 5A)” value ([3]; DU145, SCID mice, SEQ ID NO:1 10 mg/kg i.v. every other day 15 times, mitoxantrone 2 mg/kg i.v. once)?
A: The value was “significant delay of tumour growth compared to saline control”.

Q: What about the “Inhibition of tumour weight” value ([4]; Human Pancreatic Adenocarcinoma) of the same substance?
A: The value was about 65%.

Q: What about the “Inhibition of tumour growth” value ([4]; Human Pancreatic Adenocarcinoma, up to 39 days after tumour implantation) of the same substance?
A: The value was “Complete inhibition of tumour growth up to 39”.

Q: And the “Inhibitory effect on tumour growth (tumour volume, FIG. 19)” value ([4]; SU.86.86, CD-1 nude mice, 10 mg/kg i.v. every other day, 34 days, two batches)?
A: Its value is “strong inhibitory effects on the growth of human pancreatic carcinoma”.

Q: And the “Tumour weight as % of saline control” value ([5]; HL-60 (leukemia), Taxol resistant, SCID, Taxol 10 mg/kg i.p. weekly)?
A: Its value is 38%.

Q: What about the “Antitumour effect (FIG. 15)” value ([5]; HL-60 taxol-resistant, SCID mice, taxol 10 mg/kg i.p. weekly) of the same substance?
A: The value was “significant reduction of tumour weight compared to saline control”.
